# Key:
# amylopsin = biological target: T1, amylopsin (Homo sapiens, UniProt P04746)
# T1 sequence (P04746 16-511): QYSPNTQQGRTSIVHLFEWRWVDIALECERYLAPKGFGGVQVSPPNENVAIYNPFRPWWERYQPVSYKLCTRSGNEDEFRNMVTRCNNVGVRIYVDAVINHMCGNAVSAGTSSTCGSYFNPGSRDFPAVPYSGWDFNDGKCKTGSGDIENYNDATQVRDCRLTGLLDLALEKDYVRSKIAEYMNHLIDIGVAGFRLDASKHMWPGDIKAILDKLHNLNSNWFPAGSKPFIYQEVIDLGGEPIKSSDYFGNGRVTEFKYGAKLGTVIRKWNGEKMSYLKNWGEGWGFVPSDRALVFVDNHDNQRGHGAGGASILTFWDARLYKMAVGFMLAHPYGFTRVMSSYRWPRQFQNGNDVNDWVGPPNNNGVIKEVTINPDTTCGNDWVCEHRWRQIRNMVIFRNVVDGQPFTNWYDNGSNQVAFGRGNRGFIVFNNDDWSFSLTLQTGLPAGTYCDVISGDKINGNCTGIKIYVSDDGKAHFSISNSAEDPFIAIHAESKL
# Thermostability = assay type: physicochemical; conditions: 10% (w/v) aqueous solution, 120° C.; for Purity (%) after heating: HPLC
# Experimental: After the heating, the aqueous solutions were cooled under atmospheric conditions and measured for coloration degree and determined for purity on HPLC. The coloration degree of each solution was evaluated based on the absorbance in a cell with a 1-cm light pass at a wavelength of 480 nm.
# [1] = test system: internal content of rat cecum; experiment: Fermentation test; assay type: in vitro ADME
# Experimental: The internal content of rat cecum was collected by anesthetizing a Wister male rat with ether, anatomizing the rat, collecting the internal content under anaerobic conditions, and suspending the resultant with 4-fold volumes of a 0.1 M aqueous solution of sodium bicarbonate. The cyclotetrasaccharide was added to the internal content of rat cecum in an amount of about 7% by weight, and the levels of cyclotetrasaccharide remained just after and 12 hours after the addition of the internal content were quantified on gas chromatography.
# [2] = test system: Escherichia coli IFO 3301; experiment: Assimilation test; assay type: cell-based; conditions: 0.5% saccharide in PYF medium, 37° C., four days, anaerobic
# [3] = Amino carbonyl reaction with glycine; assay type: physicochemical; conditions: 10% (w/v) with 1% (w/v) glycine, pH 7.0, 120° C.
# Experimental: (§1) Four milliliter aliquots of the resulting solution were placed in glass test tubes, sealed, and heated at 120° C. for 30 to 90 min. After allowing to stand for cooling at ambient temperature, each of the resulting solutions was measured for coloration degree to examine their amino carbonyl reactivity. The coloration degree was evaluated based on the absorbance in a cell with 1-cm light pass at a wavelength of 480 nm.
# [4] = Amino carbonyl reaction with polypeptone; assay type: physicochemical; conditions: 10% (w/v) with 5% (w/v) polypeptone, 100° C., minus control
# Experimental: as §1, with “100°” for “120°”, “solution” for “solutions”, “reactivity. In parallel, as a control, a solution with only polypeptone was provided and treated similarly as above.” for “reactivity.”, “level of the absorbance, which had been measured” for “absorbance”, “nm, minused that of the control.” for “nm.”
# [5] = test system: Bacteroides vulgatus JCM 5826; experiment: Assimilation test; assay type: cell-based; conditions: 0.5% saccharide in PYF medium, 37° C., four days, anaerobic
# [6] = test system: Clostridium perfringens JCM 3816; assay type: cell-based; conditions: 0.5% saccharide in PYF medium, 37° C., four days, anaerobic
# Inclusion action = assay type: physicochemical
# Experimental: To 100 g aliquots of the aqueous solution was added 2 g of methanol, 3 g of ethanol, or 4.6 g acetic acid to be included by the cyclotetrasaccharide. Thereafter, each of the resulting solutions was filtered to remove non-inclusion products, and the filtrates were dried in vacuo. As a control, similar inclusion products were prepared by using “ISOELITE™ P”, a branched cyclodextrin commercialized by Maruha K.K., Tokyo, Japan, which were known to have inclusion ability.
# To measure the amount of the inclusion products in the resulting lyophilized powders, one gram of each of the powders was dissolved in five milliliters of water and extracted after admixing with five milliliters of diethylether. The extraction was repeated, and the resulting extracts were quantified on gas chromatography.
# pH stability = assay type: physicochemical; conditions: 4% (w/v), 100° C., 24 hours; for Purity (%) after heating: HPLC
# Experimental: Eight milliliters of each solution was placed in a glass test tube, followed by sealing and then heating the test tube at 100° C. for 24 hours. After the heating, each solution was cooled and measured for coloration degree and determined for purity on HPLC. The coloration degree was evaluated based on the absorbance in a cell with a 1-cm light pass at a wavelength of 480 nm.
# [7] = test system: Eubacterium aerofaciens ATCC 25986; experiment: Assimilation test; assay type: cell-based; conditions: 0.5% saccharide in PYF medium, 37° C., four days, anaerobic
# [8] = test system: Bifidobacterium adolescentis JCM 1275; experiment: Assimilation test; assay type: cell-based; conditions: 0.5% saccharide in PYF medium, 37° C., four days, anaerobic
# mice = experiment: Acute toxicity test, oral; assay type: in vivo; conditions: oral administration to mice
# From the text: Based on this, the LD50 of cyclotetrasaccharide was at least 50 g/kg mouse body weight, though the value was […].
# [9] = test system: Lactobacillus acidophilus JCM 1132; experiment: Assimilation test; assay type: cell-based; conditions: 0.5% saccharide in PYF medium, 37° C., four days, anaerobic
smiles,measurement,setting,value
"OCC1OC2OCC3O[C@H](O[C@H]4C(O)C(CO)OC(OCC5O[C@H](O[C@@H](C1O)C2O)C(O)C(O)[C@@H]5O)C4O)C(O)C(O)[C@@H]3O (stereo partly drawn) [cyclotetrasaccharide, cyclo{→6)-α-D-glucopyranosyl-(1→3)-α-D-glucopyranosyl-(1→6)-α-D-glucopyranosyl-(1→3)-α-D-glucopyranosyl-(1→}]",Decomposition percentage (%) by digestive enzyme,amylopsin,0.0%
same,Coloration degree (A480 nm),Thermostability; heating time 0 min,0.00 A480 nm
same,Purity (%) after heating,Thermostability; heating time 0 min,100%
same,Coloration degree (A480 nm),Thermostability; heating time 30 min,0.00 A480 nm
same,Purity (%) after heating,Thermostability; heating time 30 min,100%
same,Coloration degree (A480 nm),Thermostability; heating time 60 min,0.00 A480 nm
same,Purity (%) after heating,Thermostability; heating time 60 min,100%
same,Coloration degree (A480 nm),Thermostability; heating time 90 min,0.00 A480 nm
same,Purity (%) after heating,Thermostability; heating time 90 min,100%
same,cyclotetrasaccharide remained intact,[1]; 12 hours after the addition,93%
same,level of cyclotetrasaccharide remained,[1]; 12 hours after the addition,63.0 mg per one gram of the internal content of rat cecum
same,level of cyclotetrasaccharide remained,[1]; just after the addition,68.0 mg per one gram of the internal content of rat cecum
same,Assimilability,[2],− (judged as negative (−) when the post culture had a pH of 6.0 or higher)
same,Coloration degree (A480 nm),[3]; heating time 0 min,0.00 A480 nm
same,Coloration degree (A480 nm),[3]; heating time 30 min,0.00 A480 nm
same,Coloration degree (A480 nm),[3]; heating time 60 min,0.00 A480 nm
same,Coloration degree (A480 nm),[3]; heating time 90 min,0.00 A480 nm
same,Coloration degree (A480 nm),[4]; heating time 0 min,0.00 A480 nm
same,Coloration degree (A480 nm),[4]; heating time 30 min,0.00 A480 nm
same,Coloration degree (A480 nm),[4]; heating time 60 min,0.00 A480 nm
same,Coloration degree (A480 nm),[4]; heating time 90 min,0.00 A480 nm
same,Assimilability,[5],− (judged as negative (−) when the post culture had a pH of 6.0 or higher)
same,Assimilability,[6],− (judged as negative (−) when the post culture had a pH of 6.0 or higher)
same,inclusion ability relative to that of the branched cyclodextrin by weight,Inclusion action,about 2 folds
same,Inclusion amount (mg/g lyophilized powder),Inclusion action; inclusion product Acetic acid,67.74 mg/g lyophilized powder
same,Inclusion amount (mg/g lyophilized powder),Inclusion action; inclusion product Ethanol,17.26 mg/g lyophilized powder
same,Inclusion amount (mg/g lyophilized powder),Inclusion action; inclusion product Methanol,6.71 mg/g lyophilized powder
same,Coloration degree (A480 nm),pH stability; pH 2.0 (Acetate buffer),0.00 A480 nm
same,Purity (%) after heating,pH stability; pH 2.0 (Acetate buffer),93%
same,Coloration degree (A480 nm),pH stability; pH 3.0 (Acetate buffer),0.00 A480 nm
same,Purity (%) after heating,pH stability; pH 3.0 (Acetate buffer),100%
same,Coloration degree (A480 nm),pH stability; pH 4.0 (Acetate buffer),0.00 A480 nm
same,Purity (%) after heating,pH stability; pH 4.0 (Acetate buffer),100%
same,Coloration degree (A480 nm),pH stability; pH 5.0 (Acetate buffer),0.00 A480 nm
same,Purity (%) after heating,pH stability; pH 5.0 (Acetate buffer),100%
same,Coloration degree (A480 nm),pH stability; pH 6.0 (Tris-HCl buffer),0.00 A480 nm
same,Purity (%) after heating,pH stability; pH 6.0 (Tris-HCl buffer),100%
same,Coloration degree (A480 nm),pH stability; pH 7.0 (Tris-HCl buffer),0.00 A480 nm
same,Purity (%) after heating,pH stability; pH 7.0 (Tris-HCl buffer),100%
same,Coloration degree (A480 nm),pH stability; pH 8.0 (Tris-HCl buffer),0.00 A480 nm
same,Purity (%) after heating,pH stability; pH 8.0 (Tris-HCl buffer),100%
same,Coloration degree (A480 nm),pH stability; pH 9.0 (Ammonium buffer),0.00 A480 nm
same,Purity (%) after heating,pH stability; pH 9.0 (Ammonium buffer),100%
same,Coloration degree (A480 nm),pH stability; pH 10.0 (Ammonium buffer),0.00 A480 nm
same,Purity (%) after heating,pH stability; pH 10.0 (Ammonium buffer),100%
same,Assimilability,[7],− (judged as negative (−) when the post culture had a pH of 6.0 or higher)
same,Assimilability,[8],− (judged as negative (−) when the post culture had a pH of 6.0 or higher)
same,LD50,mice,at least 50 g/kg mouse body weight
same,Assimilability,[9],− (judged as negative (−) when the post culture had a pH of 6.0 or higher)

# — patent US7186701B2, “Dehydrating agent and method for dehydrating moist article using the agent and dehydrated article obtained by the method” (Kabushiki Kaisha Hayashibara Seibutsu Kagaku Kenkyujo, priority 2001, dated 2007)
